Entries after “also recorded” stand apart in the source; their conditions may differ.
What was measured:
[1] = tested on: PC12 cells on MAG substrates; assay: Bioassay of PC12 neurite growth on growth inhibitory myelin-associated glycoprotein (MAG) substrates; type: cell-based
Procedure: PC-12 cells (ATCC CRL-1721) typically extend neurites in response to NGF, but when plated on inhibitory substrates, this outgrowth is inhibited and the cells remain round. We tested the ability of the new compound to grow neurites when plated on inhibitory substrates.
We used PC12 cells obtained from the American Type Culture Collection. PC12 cells were grown in Dulbecco's modified eagle's medium (DMEM) with 10% horse serum and 5% fetal bovine serum. To test compounds for the ability to overcome growth inhibition, PC12 cells were collected by detaching with trypsin-EDTA (0.05%), then resuspended in DMEM, 1% FBS, and 50 ng/ml nerve growth factor before plating on MAG substrates. MAG used for substrates was purified from myelin after extraction in 1% octylglucoside and separation by ion exchange chromatography (McKerracher et al. 1994, Neuron 13:805-811). Test substrates were prepared as uniform substrates in 96-well plates by drying overnight in the laminar flow hood (Nalge Nunc, Naperville, Ill.). Plates were precoated with polylysine (100 μg/ml) for 3 hours at 37° C., then washed and dried approx. 1 hour. MAG was prepared as a substrate by drying down 8 μg of protein overnight. After plating on the MAG substrate, the cells were grown at 37 C. for two days in the presence or absence of test compound (BA1003, BA1016, BA1017) to allow neurite growth. Polylysine substrates were used as a positive control. Quantitative analysis of neurite outgrowth was with the aid of Northern Eclipse software (Empix Imaging, Mississauga, Ontario). Data analysis and statistics were with Microsoft Excel.
Referring to FIG. 4 there is shown a graph illustrative of experiments performed in triplicate testing the ability of BA-1003, BA-1016 and BA-1017 to overcome growth inhibition by MAG. PC12 cells were plated on MAG substrates alone (MAG) or MAG substrates in the presence of 0.31 uM, 3.1 um or 31 um concentrations of the test compound. The numbers of neurons that grew neurites were scored, and are shown as the percentage of neurite growth.

[2] = tested on: retinal ganglion cells (RGC); assay: Retinal ganglion cell survival 7 days after optic nerve axotomy, intravitreal injection; type: in vivo, rat; conditions: for % Survival / Average RGC counts: 7 days after axotomy
Description: The retinal ganglion cell (RGC) response to injury and ischemia has been well documented (Berkelaar et al., 1994; Selles-Navarro et al., 1996; Vidal-Sanz et al., 1988; Villegas-Perez et al., 1998; Villegas-Perez et al., 1993). Transection of the optic nerve (ON) in the adult rat, as a model of fiber tract lesion in the adult mammalian CNS, results in delayed, mainly apoptotic death of 80-90% of retinal ganglion cells (RGCs) within 14 days post-lesion. Because of good surgical accessibility of the retina and the optic nerve, the retino-tectal projection represents not only a convenient model to study the molecular mechanisms underlying neuronal death but also serves as a suitable system for investigating potential neuroprotective agents in vivo.
After optic nerve transection, many of the retinal ganglion cells (RGC) in the eye die by apoptosis. The ability of BA-1016 to support RGC cell survival after optic nerve injury was tested. A single injection of BA-1016 was made in the eye, and one week later cell survival was assessed. Three animals were examined for each treatment group. Cell survival was improved one week after BA-1016. Neurotrophic factors that are known to rescue RGCs also give improved cell surival one week after axotomy, but multiple or chronic application is needed to increase the number of surviving cells.
Experiments were performed on adult female CD rats (180-200 g; Charles River, Canada). Animals were cared for according to the Canadian Council on Animal Care. Rats were under general anaesthesia with isofluorane connected to Moduflex Access anaesthesia machine during experimental procedures. Ophthalmic eye ointment (Polysporin) was applied to prevent corneal desiccation. […] All rats were pre-labelled with Fluorogold one week prior to optic nerve lesion.
One week after Fluorogold application, the left optic nerve was transected 1 mm from the eye. […] There are blood vessels on pia and optic nerve. The pia mater sheath was lifted and a lateral incision exposed the optic nerve. It was important not to cut the optic nerve before cutting the pia. When pia was cut, the optic nerve was moved gently to dislodge it from its sheath so that the scissors could be slipped under it to cut it. It was important to not pull the nerve at this point to avoid compromising the blood supply. When the optic nerve was well exposed, small scissors were slid tangentially under optic nerve, making sure to see their end on other side of the nerve, then cutting with one clean cut at 1 mm from the eye. Scissor blades were used as a reference for the 1 mm distance.
In the group of animals assigned to receive intravitreal injection after axotomy, the compounds of interest were injected into the vitreous space. […] The needle was removed after one minute. […]
A binocular microscope was used to view the eye during injection. The skin was closed with staples (auto clips) and the integrity of the retinal vasculature was evaluated by a postoperative ophthalmoscopy using a water-covered microscope slide. […] Finally the animals were returned to the cage and closely monitored until awakened
Seven days after axotomy, animals were killed by injecting an overdose of Chloral hydrate intraperitoneally and then they were fixed by perfusion with 4% paraformaldehyde (PFA), 0.1 M phosphate buffer; the eyes were remove carefully transecting the ocular muscles with scissors and forceps. […] RGCs are examined under the fluorescence microscope with an UV filter (365/420). […]

(R)-trans-4-(But-3′-en-1′-amino)-N-(4″-pyridyl)cyclohexane Carboxamide Dihydrochloride [BA-1016]
neurite outgrowth on MAG substrates at the lowest concentration tested ([1]; PC12 cells, 0.31 uM): better neurite outgrowth | neurite outgrowth on inhibitory MAG substrates (FIG. 4) ([1]; PC12 cells, 0.31, 3.1 or 31 uM, Dihydrochloride): can promote neurite outgrowth; also recorded: able to overcome growth inhibition by MAG | % Survival ([2]; Axotomy + 0.1 mM): 59% | Average RGC counts ([2]; Axotomy + 0.1 mM): 1352 | % Survival ([2]; Axotomy + 1 mM): 60% | Average RGC counts ([2]; Axotomy + 1 mM): 1378 | RGC cell survival after optic nerve injury ([2]; single injection in the eye, one week): improved

— patent publication US20040138272A1, “1,4-Substituted cyclohexane derivatives” (priority 2002, published 2004)
